We go through one compound from patent US20170119806A1, “[…] LACTONE DERIVATIVES AND METHODS OF MAKING AND USING THEREOF” (OHIO STATE INNOVATION FOUNDATION, priority 2014, published 2017).

Assay [1] concerns human primary NK cells. The assay is described as follows: IFN-γ production by NK cells (intracellular flow cytometry, ELISA). Format: cell-based. Conditions: 10 μM PL-C, 18 h. The protocol:
(A) Chemical structure of PL-C (phyllanthusmin C, 4), (9) Healthy donor PBMCs (left panel) or enriched NK cells (right panel) were treated with DMSO vehicle control or 10 μM PL-C for 18 h in the presence of […] (10 ng/mL) or IL-15 (100 ng/mL). The cells were harvested and analyzed by intracellular flow cytometry to determine the frequency of IFN-γ^+ cells in CD56^+CD3^− NK cells (n=8 for PBMC and n=5 for enriched NK). (C) Highly purified (≧99.5%) human primary NK cells were treated with 10 μM PL-C for 18 h to determine the levels of IFN-γ secretion by ELISA. IFN-γ secretion from treatment with PL-C alone (left panel) or in combination with IL-12 (10 ng/mL, middle panel) or IL-15 (100 ng/mL, right panel) is shown. (D) Cells were treated as described in (C) and harvested at 12 h, IFNG mRNA expression was assessed by real-time RT-PCR, and the relative IFNG mRNA expression of each treatment was normalized to untreated vehicle control in the same donor. Data are shown as mean±SEM (n=6 in each treatment; error bars represent SEM). *p<0.05, **p<0.01, which denote statistical comparison between the two marked treatment groups (B-D). (E) Highly purified (≧99,5%) primary human NK cells were treated with 10 μM. PL-C in combination with various concentrations of IL-12 (10, 1, and 0.1 ng/mL) or IL-15 (100, 10, and 1 ng/mL) for 24 h to determine the levels of IFN-γ secretion. Representative data from one of three donors with the similar data are shown. *p<0.05, **p<0.01, which denote statistical comparison between the two marked treatment groups and are calculated from data of all tested donors. Error bars represent SD. […]
Isolation of PBMCs and NK cells. […] The purity of enriched NK cells was ≧80% assessed by flow cytometric analysis after staining with CD56-allophycocyanin and CD3-FITC Abs (BD Bio-sciences, San Jose, Calif.). […] The purity of magnetic bead-purified NK cells was ≧99.5%, as determined by the aforementioned flow cytometric analysis. […]

Assay [2] relates to STAT3, STAT4, STAT5, T-BET. The experiment in a line: Immunoblotting of STATs and T-BET in NK cells. The note with it: 5 or 10 μM PL-C, 4 h, with IL-12 or IL-15; listed as PL-C. Format: cell-based, human. The protocol:
(A) Purified human primary NK cells were treated with 10 μM PL-C in the presence of IL-2 (10 ng/mL) or IL-15 (100 ng/mL) for 12 hours. DMSO-treated cells served as vehicle controls. Cell pellets were harvested to extract total RNA for real-time RT-PCR to determine mRINA expression levels of IL-12Rβ1, IL-12Rβ2, IL-15Rα and IL-15β. Data are shown as means of 3 donors, * and ** indicate p<0.05 and p<0.01, respectively, which denote a statistical comparison between the two marked treatment groups. Error bars represent S.D. (B, C) Purified primary NK cells (B) or NKL cells (C) were treated with 5 or 10 μM PL-C in the presence of IL-12 (10 ng/mL) or IL-15 (100 ng/mL) for 4 hours. DMSO-treated cells served as vehicle controls. Cell pellets were harvested for subsequent immunoblotting of T-BET, phosphorylated STAT3 (p-STAT3), p-STAT4, p-STAT5, STAT3, STAT4, and STAT5. Data represent 1 out of 3 donors with similar data (B) and 3 independent experiments with similar results (C). Numbers underneath each lane represent quantification of detected protein by densitometry, after normalizing to β-actin.
Immunoblotting. Immunoblotting was performed as described previously (Yu J et al. Immunity 2006, 24, 575-590; Yu J et al. Blood 2010, 115, 274-281). […]
In general terms: A western blot detects proteins with antibodies after separation by electrophoresis.

“Also recorded” adds a separate entry of the source.

On to `COc1cc2c(OC3OCC(O)C(O)C3O)c3c(c(-c4ccc5c(c4)OCO5)c2cc1OC)C(=O)OC3` (stereo not drawn) [Compound 4, Phyllanthusmin C], for which, in assay [1] (alone or with IL-12 (10 ng/mL) or IL-15 (100 ng/mL), listed as PL-C), the “IFN-γ production/secretion by human NK cells” value is recorded as “enhanced IFN-γ production; also recorded: can induce NK cell IFN-γ production; also recorded: induced NK cell secretion of IFN-γ even in the absence IL-12 or IL-15; also recorded: enhanced NK cell IFN-γ secretion in the presence of IL-12 or IL-15 stimulation; also recorded: enhanced by PL-C”. In addition, the “IFN-γ production induced by Pam3CSK4 or FSL-1 in NK cells” value in assay [1] (ligands 1 μg/mL, IL-12 (10 ng/mL)) was “enhanced IFN-γ production”. In assay [2], the “total or phosphorylated STAT3, STAT4, STAT5 and T-BET in NK or NKL cells” value is “No upregulation; also recorded: no significant change of T-BET”.
